Reference: the supplement of paper PMC10307832

How the values were obtained:
Assay in all cases: relative viability (nuclei count vs DMSO), 5 days (fraction); higher = more cells survive
[1] = compound: C1CNCCC1C2=CC(=NN2)C3=CC=NC=C3 + CC(=O)c1c(C)c2cnc(Nc3ccc(N4CCNCC4)cn3)nc2n(C2CCCC2)c1=O [Palbociclib] (partner 0.5 µM)
Outline: (§1)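 For relative viability, nuclei counts in treated wells were divided by those in vehicle wells. Lung cancer cell lines had been pin-tool dosed in 1536-well plates the day after seeding and cultured for 5 days, then fixed and stained in one step (final 0.05% Triton X-100, 1% formaldehyde, 1 ug/ml Hoechst) and imaged at 4×. Doses were one drug alone or a fixed anchor-drug dose plus five library-drug doses (not always all listed) in √10 steps, and values are duplicate-plate medians.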

[2] = compound: C[C@@H](N)c1ccc(C(=O)Nc2ccnc3[nH]ccc23)cc1 + Cc1cc(Nc2cc(N3CCN(C)CC3)nc(Sc3ccc(NC(=O)C4CC4)cc3)n2)n[nH]1 [Tozasertib] (partner 0.1 µM)
Outline: as §1

Tanzisertib + Navitoclax = compound: O[C@H]1CC[C@H](Nc2ncc3nc(Nc4c(F)cc(F)cc4F)n([C@H]4CCOC4)c3n2)CC1 [Tanzisertib] + CC1(C)CCC(c2ccc(Cl)cc2)=C(CN2CCN(c3ccc(C(=O)NS(=O)(=O)c4ccc(N[C@H](CCN5CCOCC5)CSc5ccccc5)c(S(=O)(=O)C(F)(F)F)c4)cc3)CC2)C1 [Navitoclax] (partner 0.5 µM)
Outline: as §1

Tanzisertib + AZD7762 = compound: O[C@H]1CC[C@H](Nc2ncc3nc(Nc4c(F)cc(F)cc4F)n([C@H]4CCOC4)c3n2)CC1 [Tanzisertib] + NC(=O)Nc1cc(-c2cccc(F)c2)sc1C(=O)N[C@H]1CCCNC1 [AZD7762] (partner 0.2 µM)
Outline: as §1

Row | Cell Line | relative viability ([1]; first compound 0.08 µM) | relative viability ([1]; first compound 0.8 µM) | relative viability ([1]; first compound 2.53 µM) | relative viability ([1]; first compound 8 µM) | relative viability ([2]; first compound 0.04 µM) | relative viability ([2]; first compound 0.1265 µM) | relative viability ([2]; first compound 0.4 µM) | relative viability ([2]; first compound 1.265 µM) | relative viability ([2]; first compound 4 µM) | relative viability (Tanzisertib + Navitoclax; first compound 0.08 µM) | relative viability (Tanzisertib + Navitoclax; first compound 0.253 µM) | relative viability (Tanzisertib + Navitoclax; first compound 0.8 µM) | relative viability (Tanzisertib + Navitoclax; first compound 2.53 µM) | relative viability (Tanzisertib + Navitoclax; first compound 8 µM) | relative viability (Tanzisertib + AZD7762; first compound 0.08 µM) | relative viability (Tanzisertib + AZD7762; first compound 0.253 µM) | relative viability (Tanzisertib + AZD7762; first compound 0.8 µM) | relative viability (Tanzisertib + AZD7762; first compound 2.53 µM) | relative viability (Tanzisertib + AZD7762; first compound 8 µM)
1 | NCI-H1666 | 0.657 | 0.662 | 0.667 | 0.669 | 0.605 | 0.618 | 0.63 | 0.698 | 0.593 | 0.972 | 1.03 | 0.916 | 1.06 | 0.878 | 0.939 | 0.905 | 0.848 | 0.9 | 0.684
2 | NCI-H1734 | 0.303 | 0.34 | 0.309 | 0.345 | 0.263 | 0.247 | 0.259 | 0.213 | 0.202 | 1.03 | 0.777 | 0.852 | 0.867 | 0.757 | 0.596 | 0.532 | 0.558 | 0.534 | 0.526
3 | NCI-H1755 | 0.437 | 0.442 | 0.462 | 0.365 | 0.568 | 0.602 | 0.725 | 0.581 | 0.559 | 1.1 | 1.02 | 0.98 | 0.982 | 0.931 | 0.462 | 0.474 | 0.441 | 0.399 | 0.384
4 | NCI-H1793 | 0.296 | – | 0.329 | 0.364 | 0.447 | 0.32 | 0.367 | – | 0.378 | 0.432 | 0.424 | 0.445 | 0.39 | 0.382 | 0.643 | 0.574 | 0.462 | 0.406 | 0.397
5 | NCI-H1915 | 0.502 | 0.521 | 0.493 | 0.529 | 0.455 | 0.472 | 0.45 | – | 0.331 | 0.793 | 0.786 | 0.78 | 0.805 | 0.83 | 0.716 | 0.675 | 0.709 | 0.714 | 0.653
6 | NCI-H1944 | 0.267 | 0.326 | 0.353 | 0.359 | 0.278 | 0.269 | 0.271 | 0.258 | 0.218 | 1.11 | 1.04 | 1.04 | 1.05 | 1.03 | 0.526 | 0.507 | 0.52 | 0.422 | 0.458
7 | NCI-H1975 | 0.629 | 0.342 | 0.668 | 0.645 | 0.8 | 0.712 | 0.729 | 0.696 | 0.642 | 1.28 | 1.09 | 1.21 | 1.29 | 1.03 | 0.697 | 0.794 | 0.752 | 0.653 | 0.54
8 | NCI-H1993 | 0.704 | 0.737 | 0.698 | 0.738 | 0.579 | 0.591 | 0.56 | 0.639 | 0.6 | 1.08 | 0.909 | 0.947 | 0.924 | 0.803 | 1.21 | 0.867 | 0.731 | 0.68 | 0.823
9 | NCI-H2085 | 0.519 | – | 0.481 | 0.485 | 0.865 | 0.772 | 0.694 | – | 0.722 | 1.11 | 1.05 | 1.2 | 1.09 | 1.14 | – | 0.974 | 1.02 | 0.981 | 1.02
10 | NCI-H2087 | 0.18 | 0.22 | 0.196 | 0.276 | 0.324 | 0.235 | 0.274 | – | 0.181 | 1.04 | 0.961 | 0.957 | 1.04 | 0.95 | 1.48 | 1.07 | 1.33 | 1.41 | 1.26
11 | NCI-H2126 | 0.364 | 0.368 | 0.322 | 0.354 | 0.92 | 0.885 | 0.877 | 0.921 | 0.854 | 0.914 | 0.854 | 0.877 | 0.815 | 0.893 | 1.07 | 1.03 | 1.04 | 1.05 | 1.05
12 | NCI-H2170 | 0.36 | 0.454 | 0.407 | 0.4 | 0.719 | 0.663 | 0.784 | 0.699 | 0.636 | 0.702 | 0.496 | 0.656 | 0.57 | 0.582 | 1.09 | 0.897 | 0.791 | 1.02 | 0.676
13 | NCI-H2347 | 0.385 | 0.453 | 0.44 | 0.431 | 0.466 | 0.64 | 0.592 | – | 0.706 | 0.793 | 0.809 | 0.888 | 0.87 | 0.837 | 0.866 | 0.718 | 0.825 | 0.762 | 0.662
14 | NCI-H2405 | 0.502 | 0.519 | 0.586 | 0.507 | 0.858 | 0.832 | 0.759 | 0.507 | 0.35 | 0.968 | 0.837 | 1.02 | 1.03 | 0.688 | 0.767 | 0.794 | 0.757 | 0.795 | 0.617
15 | NCI-H3122 | 0.152 | 0.185 | 0.181 | 0.178 | 0.397 | 0.357 | 0.497 | – | 0.468 | 1.03 | 1.02 | 1.04 | 1.07 | 0.972 | 1.13 | 1.03 | 1.03 | 0.981 | 0.993
16 | PC-3 [JPC-3] | 0.547 | 0.495 | 0.558 | 0.541 | 0.892 | 0.839 | 0.955 | 0.967 | 0.816 | 0.898 | 0.815 | 0.866 | 0.81 | 0.853 | 0.81 | 0.937 | 0.844 | 0.733 | 0.679
17 | PC-14 | 0.531 | 0.585 | 0.613 | 0.468 | 0.518 | 0.577 | 0.543 | 0.385 | 0.429 | 1.03 | 1.05 | 0.934 | 1.02 | 0.736 | 0.476 | 0.531 | 0.367 | 0.386 | 0.213
